Test results reported in the NIST ThermoML archive (doi:10.1016/j.fluid.2013.09.036).
Numbers after ± are expanded uncertainties.

Assays:
[1] = xn = mol fraction of the nth substance listed; settings: Liquid, Other PVT measurement
[2] = 101.33 kPa, Liquid; for mass density: Vibrating tube method

CCC[N+]1(C)CCCC1.O=S(=O)([N-]S(=O)(=O)C(F)(F)F)C(F)(F)F + O=C=O
[1]
Settings	molar volume [m3/mol]
298.15 K, 525.5 kPa, x2 = 0.134	0.0002522 ± 3e-06
298.15 K, 1123.1 kPa, x2 = 0.255	0.0002222 ± 2.7e-06
298.15 K, 1476.5 kPa, x2 = 0.316	0.0002071 ± 2.5e-06
298.15 K, 1913.1 kPa, x2 = 0.376	0.0001924 ± 2.3e-06
298.15 K, 2237.6 kPa, x2 = 0.418	0.000182 ± 2.2e-06
298.15 K, 2800.7 kPa, x2 = 0.478	0.0001674 ± 2e-06
298.15 K, 3281.6 kPa, x2 = 0.523	0.0001565 ± 1.9e-06
298.15 K, 3998.7 kPa, x2 = 0.578	0.0001431 ± 1.7e-06
298.15 K, 4567.3 kPa, x2 = 0.616	0.0001339 ± 1.6e-06
313.15 K, 567.7 kPa, x2 = 0.113	0.0002606 ± 3.1e-06
313.15 K, 1217.5 kPa, x2 = 0.218	0.0002344 ± 2.8e-06
313.15 K, 1606.5 kPa, x2 = 0.273	0.0002203 ± 2.6e-06
313.15 K, 2083.3 kPa, x2 = 0.327	0.000207 ± 2.5e-06
313.15 K, 2445 kPa, x2 = 0.369	0.0001966 ± 2.4e-06
313.15 K, 3072.7 kPa, x2 = 0.425	0.0001827 ± 2.2e-06
313.15 K, 3613.6 kPa, x2 = 0.468	0.0001718 ± 2.1e-06
313.15 K, 4415.1 kPa, x2 = 0.519	0.0001596 ± 1.9e-06
313.15 K, 5100.5 kPa, x2 = 0.561	0.000149 ± 1.8e-06
333.15 K, 618.4 kPa, x2 = 0.093	0.0002678 ± 3.2e-06
333.15 K, 1333.3 kPa, x2 = 0.18	0.0002455 ± 2.9e-06
333.15 K, 1767.4 kPa, x2 = 0.229	0.0002327 ± 2.8e-06
333.15 K, 2294.9 kPa, x2 = 0.275	0.0002214 ± 2.7e-06
333.15 K, 2702.9 kPa, x2 = 0.316	0.0002107 ± 2.5e-06
333.15 K, 3411.9 kPa, x2 = 0.368	0.0001978 ± 2.4e-06
333.15 K, 4029.9 kPa, x2 = 0.409	0.0001874 ± 2.3e-06
333.15 K, 4942.5 kPa, x2 = 0.455	0.0001767 ± 2.1e-06
333.15 K, 5777.2 kPa, x2 = 0.501	0.000165 ± 2e-06

CCC[N+]1(C)CCCC1.O=S(=O)([N-]S(=O)(=O)C(F)(F)F)C(F)(F)F
[2]
Settings	electrical conductivity [S/m]	mass density [kg/m3]	viscosity [mPa·s]
278.15 K	0.158 ± 0.0063	1446.23 ± 1.6	169.4 ± 6.8
283.15 K	0.206 ± 0.0082	1441.6 ± 1.6	127.2 ± 5.1
288.15 K	0.262 ± 0.011	1437 ± 1.5	97.84 ± 4
293.15 K	0.327 ± 0.013	1432.46 ± 1.5	76.89 ± 3.1
298.15 K	0.4 ± 0.016	1427.91 ± 1.5	61.52 ± 2.5
303.15 K	0.483 ± 0.019	1423.37 ± 1.5	49.99 ± 2
313.15 K	0.675 ± 0.027	1414.36 ± 1.5	34.45 ± 1.4
323.15 K	0.902 ± 0.036	1405.44 ± 1.5	24.91 ± 1
333.15 K	1.16 ± 0.047	1396.6 ± 1.5	18.71 ± 0.75
343.15 K	1.46 ± 0.058	1387.82 ± 1.5	14.51 ± 0.58
353.15 K	1.78 ± 0.071	1379.12 ± 1.5	11.55 ± 0.47
363.15 K	–	1370.48 ± 1.5	9.398 ± 0.38
